In PubChem BioAssay (NCI):
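Where inhibition never reached the appropriate level, the endpoint shown equals the highest concentration tested. Otherwise, values were interpolated linearly from a five-concentration, 48-hour dose response in 96-well plates. The concentration for 50% growth inhibition is given as GI50. At the TGI there is no net growth.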

Tests used:
Test in all cases: inhibition of tumour cell growth, NCI panel, 48 h
COLO 205 colon = tested on: COLO 205 colon
UO-31 renal = tested on: UO-31 renal
OVCAR-8 ovarian = tested on: OVCAR-8 ovarian
PC-3 prostate = tested on: PC-3 prostate
OVCAR-4 ovarian = tested on: OVCAR-4 ovarian
SK-OV-3 ovarian = tested on: SK-OV-3 ovarian
A549 NSCLC = tested on: A549 NSCLC
BT-549 breast = tested on: BT-549 breast
SF-268 CNS = tested on: SF-268 CNS
M14 melanoma = tested on: M14 melanoma
SNB-19 CNS = tested on: SNB-19 CNS
SNB-75 CNS = tested on: SNB-75 CNS
TK-10 renal = tested on: TK-10 renal
SK-MEL-2 melanoma = tested on: SK-MEL-2 melanoma
NCI-H522 lung = tested on: NCI-H522 lung
HCT-116 colon = tested on: HCT-116 colon
HCC-2998 colon = tested on: HCC-2998 colon
UACC-62 melanoma = tested on: UACC-62 melanoma
SK-MEL-28 melanoma = tested on: SK-MEL-28 melanoma
NCI-H226 lung = tested on: NCI-H226 lung
UACC-257 melanoma = tested on: UACC-257 melanoma
KM12 colon = tested on: KM12 colon
HT29 colon = tested on: HT29 colon
HOP-62 NSCLC = tested on: HOP-62 NSCLC
CCRF-CEM leukemia = tested on: CCRF-CEM leukemia
786-0 renal = tested on: 786-0 renal
SR leukemia = tested on: SR leukemia
HS 578T breast = tested on: HS 578T breast
SN12C renal = tested on: SN12C renal

CC(=O)Oc1ccccc1C(=O)Nc1cc(C(C)C)ccc1C
GI50 (COLO 205 colon): 18.3 µM
TGI (COLO 205 colon): 36.2 µM
GI50 (UO-31 renal): 2.93 µM
TGI (UO-31 renal): 11.7 µM
GI50 (OVCAR-8 ovarian): 4.9 µM
TGI (OVCAR-8 ovarian): > 100 µM
GI50 (PC-3 prostate): 4.31 µM
TGI (PC-3 prostate): 56.8 µM
GI50 (OVCAR-4 ovarian): 3.44 µM
TGI (OVCAR-4 ovarian): > 100 µM
GI50 (SK-OV-3 ovarian): 5.88 µM
TGI (SK-OV-3 ovarian): 41.6 µM
GI50 (A549 NSCLC): 5.01 µM
TGI (A549 NSCLC): > 100 µM
GI50 (BT-549 breast): 2.63 µM
TGI (BT-549 breast): 8.34 µM
GI50 (SF-268 CNS): 7.14 µM
TGI (SF-268 CNS): > 100 µM
GI50 (M14 melanoma): 5.31 µM
TGI (M14 melanoma): 22.4 µM
GI50 (SNB-19 CNS): 3.52 µM
TGI (SNB-19 CNS): 23.1 µM
GI50 (SNB-75 CNS): 4.09 µM
TGI (SNB-75 CNS): 27.6 µM
GI50 (TK-10 renal): 2.96 µM
TGI (TK-10 renal): 12.8 µM
GI50 (SK-MEL-2 melanoma): 3.1 µM
TGI (SK-MEL-2 melanoma): 12.2 µM
GI50 (NCI-H522 lung): 2.34 µM
TGI (NCI-H522 lung): 7.86 µM
GI50 (HCT-116 colon): 4.49 µM
TGI (HCT-116 colon): 16.7 µM
GI50 (HCC-2998 colon): 4.62 µM
TGI (HCC-2998 colon): 20 µM
GI50 (UACC-62 melanoma): 2.49 µM
TGI (UACC-62 melanoma): 7.59 µM
GI50 (SK-MEL-28 melanoma): 3.93 µM
TGI (SK-MEL-28 melanoma): 20.6 µM
GI50 (NCI-H226 lung): 2.55 µM
TGI (NCI-H226 lung): 10.4 µM
GI50 (UACC-257 melanoma): 4.33 µM
TGI (UACC-257 melanoma): 33 µM
GI50 (KM12 colon): 4.61 µM
TGI (KM12 colon): 32.3 µM
GI50 (HT29 colon): 29.8 µM
TGI (HT29 colon): > 100 µM
GI50 (HOP-62 NSCLC): 11.2 µM
TGI (HOP-62 NSCLC): 44.9 µM
GI50 (CCRF-CEM leukemia): 6.19 µM
TGI (CCRF-CEM leukemia): > 100 µM
GI50 (786-0 renal): 5.92 µM
TGI (786-0 renal): 26.6 µM
GI50 (SR leukemia): 3.56 µM
TGI (SR leukemia): 30.9 µM
GI50 (HS 578T breast): 4.67 µM
TGI (HS 578T breast): 34.7 µM
GI50 (SN12C renal): 3.73 µM
TGI (SN12C renal): 20.7 µM
